In the supplement of paper PMC10307832:

Tests used:
Experiment in all cases: relative viability (nuclei count vs DMSO), 5 days (fraction); higher = more cells survive
Everolimus + Palbociclib = compound: CO[C@H]1C[C@@H]2CC[C@@H](C)[C@@](O)(O2)C(=O)C(=O)N2CCCC[C@H]2C(=O)O[C@H]([C@H](C)C[C@@H]2CC[C@@H](OCCO)[C@H](OC)C2)CC(=O)[C@H](C)/C=C(\C)[C@@H](O)[C@@H](OC)C(=O)[C@H](C)C[C@H](C)/C=C/C=C/C=C/1C [Everolimus] + CC(=O)c1c(C)c2cnc(Nc3ccc(N4CCNCC4)cn3)nc2n(C2CCCC2)c1=O [Palbociclib] (partner 0.5 µM)
Procedure, shortened: (§1)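 Each reported value is a median over duplicate plates. It expresses relative viability: treated-well nuclei count divided by vehicle-well nuclei count. Lung cancer cell lines in 1536-well plates were dosed by pin tool a day after seeding, alone with one drug or with a fixed anchor-drug dose plus five library-drug doses (not always all listed) in √10 steps, and nuclei were counted after 5 days.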

Everolimus + Foretinib = compound: CO[C@H]1C[C@@H]2CC[C@@H](C)[C@@](O)(O2)C(=O)C(=O)N2CCCC[C@H]2C(=O)O[C@H]([C@H](C)C[C@@H]2CC[C@@H](OCCO)[C@H](OC)C2)CC(=O)[C@H](C)/C=C(\C)[C@@H](O)[C@@H](OC)C(=O)[C@H](C)C[C@H](C)/C=C/C=C/C=C/1C [Everolimus] + COc1cc2c(Oc3ccc(NC(=O)C4(C(=O)Nc5ccc(F)cc5)CC4)cc3F)ccnc2cc1OCCCN1CCOCC1 [Foretinib] (partner 0.25 µM)
Procedure, shortened: as §1

Everolimus + Pictilisib = compound: CO[C@H]1C[C@@H]2CC[C@@H](C)[C@@](O)(O2)C(=O)C(=O)N2CCCC[C@H]2C(=O)O[C@H]([C@H](C)C[C@@H]2CC[C@@H](OCCO)[C@H](OC)C2)CC(=O)[C@H](C)/C=C(\C)[C@@H](O)[C@@H](OC)C(=O)[C@H](C)C[C@H](C)/C=C/C=C/C=C/1C [Everolimus] + CS(=O)(=O)N1CCN(Cc2cc3nc(-c4cccc5[nH]ncc45)nc(N4CCOCC4)c3s2)CC1 [Pictilisib] (partner 1 µM)
Procedure, shortened: as §1

Everolimus + Bortezomib = compound: CO[C@H]1C[C@@H]2CC[C@@H](C)[C@@](O)(O2)C(=O)C(=O)N2CCCC[C@H]2C(=O)O[C@H]([C@H](C)C[C@@H]2CC[C@@H](OCCO)[C@H](OC)C2)CC(=O)[C@H](C)/C=C(\C)[C@@H](O)[C@@H](OC)C(=O)[C@H](C)C[C@H](C)/C=C/C=C/C=C/1C [Everolimus] + CC(C)C[C@H](NC(=O)[C@H](Cc1ccccc1)NC(=O)c1cnccn1)B(O)O [Bortezomib] (partner 0.002 µM)
Procedure, shortened: as §1

| Cell Line | relative viability (Everolimus + Palbociclib; first compound 0.01 µM) | relative viability (Everolimus + Palbociclib; first compound 0.03162 µM) | relative viability (Everolimus + Palbociclib; first compound 0.1 µM) | relative viability (Everolimus + Palbociclib; first compound 0.3162 µM) | relative viability (Everolimus + Palbociclib; first compound 1 µM) | relative viability (Everolimus + Foretinib; first compound 0.01 µM) | relative viability (Everolimus + Foretinib; first compound 0.03162 µM) | relative viability (Everolimus + Foretinib; first compound 0.1 µM) | relative viability (Everolimus + Foretinib; first compound 0.3162 µM) | relative viability (Everolimus + Foretinib; first compound 1 µM) | relative viability (Everolimus + Pictilisib; first compound 0.01 µM) | relative viability (Everolimus + Pictilisib; first compound 0.03162 µM) | relative viability (Everolimus + Pictilisib; first compound 0.1 µM) | relative viability (Everolimus + Pictilisib; first compound 0.3162 µM) | relative viability (Everolimus + Pictilisib; first compound 1 µM) | relative viability (Everolimus + Bortezomib; first compound 0.01 µM) | relative viability (Everolimus + Bortezomib; first compound 0.03162 µM) | relative viability (Everolimus + Bortezomib; first compound 0.1 µM) | relative viability (Everolimus + Bortezomib; first compound 0.3162 µM) | relative viability (Everolimus + Bortezomib; first compound 1 µM) |
| --- | --- | --- | --- | --- | --- | --- | --- | --- | --- | --- | --- | --- | --- | --- | --- | --- | --- | --- | --- | --- |
| NCI-H1395 | 0.482 | 0.444 | 0.466 | 0.515 | 0.429 | 0.901 | 0.683 | 0.727 | 0.617 | 0.627 | 0.571 | 0.548 | 0.508 | 0.5 | 0.496 |  |  |  |  |  |
| NCI-H1563 |  |  |  |  |  | 0.721 | 0.768 | 0.685 | 0.712 | 0.562 | 0.664 | 0.672 | 0.632 | 0.676 | 0.646 | 0.665 | 0.724 | 0.762 | 0.715 | 0.704 |
| NCI-H1648 | 0.257 | 0.21 | 0.259 | 0.22 | 0.222 |  |  |  |  |  |  |  |  |  |  |  |  |  |  |  |
| NCI-H1703 |  |  |  |  |  | 0.347 | 0.406 | 0.361 | 0.338 | 0.328 | 0.208 | 0.24 | 0.306 | 0.228 | 0.25 | 0.183 | 0.178 | 0.212 | 0.213 | 0.186 |
| NCI-H1792 | 0.776 | 0.518 | 0.448 | 0.464 | 0.376 |  |  |  |  |  | 0.189 | 0.14 | 0.121 | 0.148 | 0.105 | 0.819 | 0.705 | 0.657 | 0.572 | 0.538 |
| NCI-H1793 | 0.219 | 0.19 | 0.246 | 0.214 | 0.166 | 0.293 | 0.314 | 0.259 | 0.293 | 0.291 | 0.225 | 0.222 | 0.141 | 0.237 | 0.19 |  |  |  |  |  |
| NCI-H1944 | 0.214 | 0.195 | 0.196 | 0.23 | 0.202 | 0.572 | 0.583 | 0.608 | 0.629 | 0.658 | 0.315 | 0.314 | 0.248 | 0.31 | 0.284 |  |  |  |  |  |
| NCI-H2170 | 0.195 | 0.187 | 0.162 | 0.16 | 0.186 | 0.635 | 0.641 | 0.654 | 0.587 | 0.614 | 0.229 | 0.234 | 0.159 | 0.214 | 0.198 |  |  |  |  |  |
| NCI-H2342 | 0.48 | 0.407 | 0.493 | 0.44 | 0.463 | 0.924 | 0.654 | 0.551 | 0.618 | 0.681 |  |  |  |  |  |  |  |  |  |  |
| SK-MES-1 | 0.239 | 0.264 | 0.258 | 0.273 | 0.243 | 0.701 | 0.662 | 0.638 | 0.501 | 0.547 | 0.281 | 0.243 | 0.265 | 0.236 | 0.215 |  |  |  |  |  |
| SW 900 | 0.445 | 0.331 | 0.406 | 0.383 | 0.318 | 0.685 | 0.477 | 0.748 | 0.525 | 0.508 |  |  |  |  |  |  |  |  |  |  |
